*1 amine or outer side, *2 acyl side, *3 side chain or, on linkers, in order; H or OH if unused. Where a SMILES comes first, the peptide text is derived from it. Side-chain parts run from the residue outwards. The star is where a group is joined. C18 diacid = O=C(O)CCCCCCCCCCCCCCCCC(=O)*; γGlu = O=C(O)[C@H](CCC(=O)[*:2])N[*:1]; Isovaleryl = CC(C)CC(=O)*; AEEA = NCCOCCOCC(=O)O
Columns and labels:
[1] = target: T1, Human Neuropeptide Y2 Receptor (Homo sapiens, UniProt P49146); test: Radioligand binding competition assay (RLB); conditions: Table 3; human 125I-PYY (1-36) 0.02 nM, Y2 receptor membranes; read-out: Ki
T1 construct: purchased CHEMICON HTS066M
T1 sequence (P49146 1-381): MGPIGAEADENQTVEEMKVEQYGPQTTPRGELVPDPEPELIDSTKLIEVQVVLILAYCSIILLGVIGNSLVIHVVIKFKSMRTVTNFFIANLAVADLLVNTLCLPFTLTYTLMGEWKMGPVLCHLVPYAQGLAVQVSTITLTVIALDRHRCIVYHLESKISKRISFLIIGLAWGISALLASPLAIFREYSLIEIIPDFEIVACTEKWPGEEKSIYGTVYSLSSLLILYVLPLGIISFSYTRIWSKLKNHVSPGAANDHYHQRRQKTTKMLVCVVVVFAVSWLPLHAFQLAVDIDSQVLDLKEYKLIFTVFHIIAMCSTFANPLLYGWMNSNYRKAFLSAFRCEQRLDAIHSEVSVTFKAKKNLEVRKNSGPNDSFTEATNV
In short: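 Peptide dilutions made in pH 7.4 HEPES assay buffer with 0.2% ovalbumin; human Y2 receptor membranes added at 0.5 μg protein/well; plates shaken 2 h at room temperature; reaction stopped by vacuum filtration onto PEI-treated GF/C filters with ice-cold high-salt washes; radioactivity counted by scintillation.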

normal NMRI mice = test: Effect on acute food intake in normal NMRI mice; assay type: in vivo; conditions: male NMRI mice, 10 nmol/kg subcutaneously once
In short: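 A single 10 nmol/kg s.c. peptide dose was given 1 h before lights-off to male NMRI mice fasted from 6 h before the night phase (n=7-8). Intake was recorded continuously by microchip-identified HM-2 feeding channels. Values are normalized to vehicle controls (50 mM phosphate buffer pH7 with 5% Mannitol).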

SMILES	Ki [1] [nM]	Acute Food Intake 24 h [% vehicle] (normal NMRI mice)
CC(C)CC(=O)N[C@@H](C)C(=O)N1CCC[C@H]1C(=O)N[C@@H](CCC(=O)O)C(=O)N[C@@H](CCCCNC(=O)COCCOCCNC(=O)COCCOCCNC(=O)CC[C@H](NC(=O)CCCCCCCCCCCCCCCCC(=O)O)C(=O)O)C(=O)N1CCC[C@H]1C(=O)N[C@@H](CCC(=O)O)C(=O)N[C@@H](CCC(=O)O)C(=O)N[C@@H](CC(=O)O)C(=O)N[C@@H](C)C(=O)N[C@@H](CO)C(=O)N1CCC[C@H]1C(=O)N[C@@H](CCC(=O)O)C(=O)N[C@@H](C)C(=O)N[C@@H](CC(C)C)C(=O)N[C@@H](CCC(N)=O)C(=O)N[C@@H](CCCNC(=N)N)C(=O)N[C@@H](Cc1ccc(O)cc1)C(=O)N[C@@H](Cc1ccc(O)cc1)C(=O)N[C@H](C(=O)N[C@@H](CCC(=O)O)C(=O)N[C@@H](CC(C)C)C(=O)N[C@@H](CCCNC(=N)N)C(=O)N[C@@H](Cc1c[nH]cn1)C(=O)N[C@@H](Cc1ccc(O)cc1)C(=O)N[C@@H](Cc1ccc(O)cc1)C(=O)N[C@@H](CC(N)=O)C(=O)N[C@@H](Cc1c[nH]c2ccccc12)C(=O)N[C@@H](CC(C)C)C(=O)N[C@H](C(=O)N[C@@H](CCCNC(=N)N)C(=O)N[C@@H](CCC(N)=O)C(=O)N[C@@H](CCCNC(=N)N)C(=O)N[C@@H](Cc1ccc(O)cc1)C(N)=O)[C@@H](C)O)C(C)C [Compound 195, N{alpha-4}-(3-methylbutanoyl)-N{epsilon-7}-[2-(2-{2-[2-(2-{2-[(4S)-4-carboxy-4-(17-carboxyheptadecanamido)butanamido]ethoxy}ethoxy)acetamido]ethoxy}ethoxy)acetamido]-[4A,7K,9E,16A,18Q,22V,23E,28Y,30W,31L]hPYY (4-36)]	0.75	50
CC(C)CC(=O)N[C@@H](C)C(=O)N1CCC[C@H]1C(=O)N[C@@H](CCC(=O)O)C(=O)N[C@@H](CCCCNC(=O)COCCOCCNC(=O)COCCOCCNC(=O)CC[C@H](NC(=O)CCCCCCCCCCCCCCCCC(=O)O)C(=O)O)C(=O)N1CCC[C@H]1C(=O)N[C@@H](CCC(=O)O)C(=O)N[C@@H](CCC(=O)O)C(=O)N[C@@H](CC(=O)O)C(=O)N[C@@H](C)C(=O)N[C@@H](C)C(=O)N1CCC[C@H]1C(=O)N[C@@H](CCC(=O)O)C(=O)N[C@@H](CCC(=O)O)C(=O)N[C@@H](CC(C)C)C(=O)N[C@@H](CCC(N)=O)C(=O)N[C@@H](CCCCN)C(=O)N[C@@H](Cc1ccc(O)cc1)C(=O)N[C@@H](Cc1ccc(O)cc1)C(=O)N[C@H](C(=O)N[C@@H](CO)C(=O)N[C@@H](CC(C)C)C(=O)N[C@@H](CCCNC(=N)N)C(=O)N[C@@H](Cc1c[nH]cn1)C(=O)N[C@@H](Cc1ccc(O)cc1)C(=O)N[C@@H](Cc1ccc(O)cc1)C(=O)N[C@@H](CC(N)=O)C(=O)N[C@@H](Cc1c[nH]c2ccccc12)C(=O)N[C@@H](CC(C)C)C(=O)N[C@H](C(=O)N[C@@H](CCCNC(=N)N)C(=O)N[C@@H](CCC(N)=O)C(=O)N[C@@H](CCCNC(=N)N)C(=O)N[C@@H](Cc1ccc(O)cc1)C(N)=O)[C@@H](C)O)C(C)C [Compound 202, N{alpha-4}-(3-methylbutanoyl)-N{epsilon-7}-[2-(2-{2-[2-(2-{2-[(4S)-4-carboxy-4-(17-carboxyheptadecanamido)butanamido]ethoxy}ethoxy)acetamido]ethoxy}ethoxy)acetamido]-[4A,7K,9E,13A,18Q,19K,22V,28Y,30W,31L]hPYY (4-36)]	0.6	48
CC(C)CC(=O)N[C@@H](C)C(=O)N1CCC[C@H]1C(=O)N[C@@H](CCC(=O)O)C(=O)N[C@@H](CCCCNC(=O)COCCOCCNC(=O)COCCOCCNC(=O)CC[C@H](NC(=O)CCCCCCCCCCCCCCCCC(=O)O)C(=O)O)C(=O)N1CCC[C@H]1C(=O)N[C@@H](CCC(=O)O)C(=O)N[C@@H](CCC(=O)O)C(=O)N[C@@H](CCC(=O)O)C(=O)N[C@@H](C)C(=O)N[C@@H](CO)C(=O)N1CCC[C@H]1C(=O)N[C@@H](CCC(=O)O)C(=O)N[C@@H](CCC(=O)O)C(=O)N[C@@H](CC(C)C)C(=O)N[C@@H](CCC(N)=O)C(=O)N[C@@H](CCCCN)C(=O)N[C@@H](Cc1ccc(O)cc1)C(=O)N[C@@H](Cc1ccc(O)cc1)C(=O)N[C@H](C(=O)N[C@@H](CO)C(=O)N[C@@H](CC(C)C)C(=O)N[C@@H](CCCNC(=N)N)C(=O)N[C@@H](Cc1c[nH]cn1)C(=O)N[C@@H](Cc1ccc(O)cc1)C(=O)N[C@@H](Cc1ccc(O)cc1)C(=O)N[C@@H](CC(N)=O)C(=O)N[C@@H](Cc1c[nH]c2ccccc12)C(=O)N[C@@H](CC(C)C)C(=O)N[C@H](C(=O)N[C@@H](CCCNC(=N)N)C(=O)N[C@@H](CCC(N)=O)C(=O)N[C@@H](CCCNC(=N)N)C(=O)N[C@@H](Cc1ccc(O)cc1)C(N)=O)[C@@H](C)O)C(C)C [Compound 205, N{alpha-4}-(3-methylbutanoyl)-N{epsilon-7}-[2-(2-{2-[2-(2-{2-[(4S)-4-carboxy-4-(17-carboxyheptadecanamido)butanamido]ethoxy}ethoxy)acetamido]ethoxy}ethoxy)acetamido]-[4A,7K,9E,11E,18Q,19K,22V,28Y,30W,31L]hPYY (4-36)] (Isovaleryl-APEK([AEEA-AEEA-γGlu-C18 diacid])PEEEASPEELQKYYVSLRHYYNWLTRQRY-NH2)	1.9	65
CC(C)CC(=O)N[C@@H](C)C(=O)N1CCC[C@H]1C(=O)N[C@@H](CCC(=O)O)C(=O)N[C@@H](CCCCNC(=O)COCCOCCNC(=O)COCCOCCNC(=O)CC[C@H](NC(=O)CCCCCCCCCCCCCCCCC(=O)O)C(=O)O)C(=O)N1CCC[C@H]1C(=O)N[C@@H](CCC(=O)O)C(=O)N[C@@H](CCC(=O)O)C(=O)N[C@@H](CC(=O)O)C(=O)N[C@@H](C)C(=O)N[C@@H](CO)C(=O)N[C@@H](CCC(=O)O)C(=O)N[C@@H](CCC(=O)O)C(=O)N[C@@H](CCC(=O)O)C(=O)N[C@H](C(=O)N[C@@H](CCC(N)=O)C(=O)N[C@@H](CCCNC(=N)N)C(=O)N[C@@H](Cc1ccc(O)cc1)C(=O)N[C@@H](Cc1ccc(O)cc1)C(=O)N[C@H](C(=O)N[C@@H](CO)C(=O)N[C@@H](CC(C)C)C(=O)N[C@@H](CCCNC(=N)N)C(=O)N[C@@H](Cc1c[nH]cn1)C(=O)N[C@@H](Cc1ccc(O)cc1)C(=O)N[C@@H](Cc1ccc(O)cc1)C(=O)N[C@@H](CC(N)=O)C(=O)N[C@@H](Cc1c[nH]c2ccccc12)C(=O)N[C@@H](CC(C)C)C(=O)N[C@H](C(=O)N[C@@H](CCCNC(=N)N)C(=O)N[C@@H](CCC(N)=O)C(=O)N[C@@H](CCCNC(=N)N)C(=O)N[C@@H](Cc1ccc(O)cc1)C(N)=O)[C@@H](C)O)C(C)C)[C@@H](C)O [Compound 208, N{alpha-4}-(3-methylbutanoyl)-N{epsilon-7}-[2-(2-{2-[2-(2-{2-[(4S)-4-carboxy-4-(17-carboxyheptadecanamido)butanamido]ethoxy}ethoxy)acetamido]ethoxy}ethoxy)acetamido]-[4A,7K,9E,14E,17T,18Q,22V,28Y,30W,31L]hPYY (4-36)]	3.8	61
CC(C)CC(=O)N[C@@H](C)C(=O)N1CCC[C@H]1C(=O)N[C@@H](CCC(=O)O)C(=O)N[C@@H](CCCCNC(=O)COCCOCCNC(=O)COCCOCCNC(=O)CC[C@H](NC(=O)CCCCCCCCCCCCCCCCC(=O)O)C(=O)O)C(=O)N1CCC[C@H]1C(=O)N[C@@H](CCC(=O)O)C(=O)N[C@@H](CCC(=O)O)C(=O)N[C@@H](CC(=O)O)C(=O)N[C@@H](CO)C(=O)N[C@@H](CCC(=O)O)C(=O)N1CCC[C@H]1C(=O)N[C@@H](CCC(=O)O)C(=O)N[C@@H](CCC(=O)O)C(=O)N[C@@H](CC(C)C)C(=O)N[C@@H](CCC(N)=O)C(=O)N[C@@H](CCCNC(=N)N)C(=O)N[C@@H](Cc1ccc(O)cc1)C(=O)N[C@@H](Cc1ccc(O)cc1)C(=O)N[C@H](C(=O)N[C@@H](CO)C(=O)N[C@@H](CC(C)C)C(=O)N[C@@H](CCCNC(=N)N)C(=O)N[C@@H](Cc1c[nH]cn1)C(=O)N[C@@H](Cc1ccc(O)cc1)C(=O)N[C@@H](Cc1ccc(O)cc1)C(=O)N[C@@H](CC(N)=O)C(=O)N[C@@H](Cc1c[nH]c2ccccc12)C(=O)N[C@@H](CC(C)C)C(=O)N[C@H](C(=O)N[C@@H](CCCNC(=N)N)C(=O)N[C@@H](CCC(N)=O)C(=O)N[C@@H](CCCNC(=N)N)C(=O)N[C@@H](Cc1ccc(O)cc1)C(N)=O)[C@@H](C)O)C(C)C [Compound 209, N{alpha-4}-(3-methylbutanoyl)-N{epsilon-7}-[2-(2-{2-[2-(2-{2-[(4S)-4-carboxy-4-(17-carboxyheptadecanamido)butanamido]ethoxy}ethoxy)acetamido]ethoxy}ethoxy)acetamido]-[4A,7K,9E,12S,13E,18Q,22V,28Y,30W,31L]hPYY (4-36)]	8.07	50

From patent US12559529B2, “NPY2 receptor agonists” (Boehringer Ingelheim International GmbH, priority 2019, dated 2026)
